Entries after “also recorded” stand apart in the source; their conditions may differ.
Tests used:
[1] = test system: non-secreted Gaussia luciferase; assay: non-secreted Gaussia luciferase activity in HeLa cell lysates; format: biochemical; conditions: 50-100 mM urea in lysis buffer, glutathione in both buffers; FIG. 24
[2] = test system: non-secreted Metridia luciferase; assay: non-secreted Metridia luciferase activity in HeLa cell lysates; format: biochemical; conditions: for signal intensity: chelator in lysis buffer without salt, 30 or 120 min lysis, FIGS. 10A, 10B; for light units (% of those obtained using 0.1% NP40): detergent type and concentration varied, 40 or 120 min, FIGS. 14A, 14B; for increase in activity between 30 and 120 min lysis: salt 150 mM in lysis buffer, % of light units at 30 min lysis, FIG. 26
Description: HeLa cells stably expressing either non-secreted and destabilized Gaussia or non-secreted and destabilized Metridia luciferase were plated onto 96-well plates and incubated overnight. Medium was removed and the cells lysed in 20 ul of lysis buffer per well. The lysis buffer comprised; 25 mM Tris pH 8.1; 0.1% NP40; 63.4 uM Na-Oxalate; 5% Glycerol plus the concentration and type of salt indicated in FIG. 4. Replicate samples were assayed for luciferase activity after 30 minutes following addition of the lysis buffer by injecting 60 ul of assay buffer. The assay buffer comprised 25 mM Tris pH 7.75; 2 mM Ascorbate; 24 uM Cz. Results were expressed as a % of the light units obtained in the absence of salt (see FIG. 4).
Luciferase assays were performed as described in Example 5 with either non-secreted and destabilized Gaussia luciferase or non-secreted and destabilized Metridia luciferase. Two experiments are shown as separate graphs, with results shown as relative luminescence in counts per second (CPS) (see FIGS. 5A and 5B). Within each experiment, the lysis buffer and assay buffer differed only in the amount and type of salt added as indicated. Replicate samples were analysed at 120 min after addition of the lysis buffer (LB) by injecting 60 ul of assay buffer (AB).
Luciferase assays were performed with non-secreted and destabilized Metridia luciferase as described in Example 5, except the lysis buffer contained no salt and but contained the indicated type and concentration of chelators. Replicate luciferase assay were carried out after a 30 or 120 min lysis period. Results from the 30 min time point were expressed as a % of the light units obtained in the absence of chelator (see FIG. 10A) and results from the 120 min time point were expressed as % of the light units obtained with the same lysis buffer at 30 min (see FIG. 10B).
HeLa cells expressing destabilised, non-secreted Gaussia or non-secreted Metridia luciferases were plated in equal aliquots onto 96-well plates and incubated overnight. Medium was removed and the cells lysed in 20 ul of lysis buffer. The detergent type and concentration was varied as indicated. Luciferase assays were carried out by injecting 60 ul of assay buffer comprising 25 mM Tris pH 8.1; 1 mM EDTA, 2 mM Ascorbate; 24 uM Cz Two experiments are shown, in the first the lysis buffer also contained 5% glycerol, 64 uM sodium oxalate, 150 mM NaBr, 25 mM Tris pH 8.5, 5 mM EDTA, 0.6 mM reduced glutathione, 0.4 mM oxidised glutathione, 75 mM urea (v6) and luciferase activity was assayed at 40 min. In the second experiment, the lysis buffer also contained 2 5 mM Tris pH 8.1, 63.4 uM Na-oxalate, 150 mM NaBr, 5% Glycerol and the luciferase activity was assayed at 120 min. Results were expressed as the % of the light units obtained using 0.1% NP40 (see FIGS. 14A and 14B). […]
HeLa cells expressing destabilised, non-secreted Metridia luciferase were plated in equal aliquots onto 96-well plates and incubated overnight.

[3] = test system: non-secreted Gaussia luciferase; assay: non-secreted Gaussia luciferase activity in HeLa cell lysates; format: biochemical; conditions: for signal intensity: chelator type and concentration varied, 30 min lysis, FIG. 9; for light units (% of those obtained using 0.1% NP40): detergent type and concentration varied, 40 or 120 min, FIGS. 14A, 14B; for signal intensity with detergent in lysis buffer: detergent 0.1% in lysis buffer unless otherwise indicated, FIGS. 13A-C; for stability of luciferase activity between 20 and 90 min after onset of cell lysis: salt and EDTA in lysis buffer, % of light units at 20 min lysis, FIG. 7; for light output (% of light units obtained in the absence of salt): salt in lysis buffer, assayed 40 min after lysis buffer, FIG. 3
Description: HeLa cells stably expressing non-secreted and destabilized Gaussia luciferase were plated onto 96-well plates and incubated overnight. Medium was removed and the cells lysed in 30 ul of lysis buffer per well. The lysis buffer (LB) comprised; 25 mM Tris pH 7.8; 0.1% NP40; 1 mM EDTA plus NaBr at concentrations of (from left to right) 0 mM, 150 mM, 0 mM and 75 mM. Luciferase activity was assayed by injecting 30 ul of an assay buffer (AB) comprising 25 mM Tris pH 7.8; 40 uM Cz plus NaBr at concentrations of (from left to right) 0 mM, 0 mM, 150 mM and 75 mM. Thus, the final concentration of NaBr was 75 mM in all samples, except the no salt controls. Results were expressed as relative light units (RLU) (See FIG. 2).
HeLa cells stably expressing non-secreted and destabilized Gaussia luciferase were plated onto 96-well plates and incubated overnight. Medium was removed and the cells lysed in 20 ul of lysis buffer per well. The lysis buffer comprised; 25 mM Tris pH 8.1, 1 mM EDTA; 0.1% NP40; 63.4 uM Na-Oxalate; 5% Glycerol plus the concentration and type of salt indicated in FIG. 3. Luciferase activity was assayed at 40 min after addition of the lysis buffer (by injecting 60 ul of an assay buffer comprising 25 mM Tris pH 8.1; 1 mM EDTA, 2 mM Ascorbate; 26 uM Cz. Results were expressed as a % of the light units obtained in the absence of salt (see FIG. 3). […]
Luciferase assays were performed as described in Example 4. All salts were present at 150 mM in lysis buffer.
Luciferase assays were performed as described in Example 7, except using the indicated concentrations of salt and EDTA in the lysis buffer. Replicate samples were assayed for luciferase activity at 20, 30, 40 and 90 min after addition of lysis buffer. Results were expressed as a % of the light units obtained after 20 min lysis in the same lysis buffer (see FIG. 7).
Luciferase assays were performed as described in Example 8, except using lysis buffer containing 150 mM NaBr and the indicated concentration of EDTA. Two experiments are shown as separate graphs, with results shown as relative light units (RLU) (see FIGS. 8A and 8B). Within each experiment, the same assay buffer was used for all samples and the lysis buffer differed only in the amount of EDTA as indicated. Replicate samples were assayed for activity of non-secreted Gaussia luciferase at 30 or 120 min after addition of lysis buffer.
Luciferase assays were performed as described in Example 9, except using the indicated type and concentration of chelator and a 30 min lysis period.
HeLa cells expressing destabilised, non-secreted Gaussia luciferase were plated in equal aliquots onto 96-well plates and incubated overnight. Three experiments are shown as separate graphs (FIGS. 13A, 13B and 13C). Within each experiment, the same assay buffer was used for all samples and the lysis buffer differed only in the type of detergent used (0.1% in lysis buffer unless otherwise indicated).
HeLa cells expressing destabilised, non-secreted Gaussia or non-secreted Metridia luciferases were plated in equal aliquots onto 96-well plates and incubated overnight. Medium was removed and the cells lysed in 20 ul of lysis buffer. The detergent type and concentration was varied as indicated.

[4] = test system: secreted Gaussia luciferase; assay: secreted Gaussia luciferase activity in conditioned medium of transfected HeLa cells; format: biochemical; conditions: salt in assay buffer, 26 uM Cz, pH 8.1; FIG. 1
Description: HeLa cells were transiently transfected with a plasmid expressing native, secreted Gaussia luciferase and 24 hrs later the conditioned medium was collected. Wells of a 96-well plate were loaded with 20 ul of conditioned medium and assayed for luciferase activity by injecting 60 ul of an assay buffer comprising 26 uM Cz; pH 8.1 plus the salt as indicated in FIG. 1. Results were expressed as a % of the light units obtained in the absence of salt (FIG. 1).

[5] = target: Firefly luciferase (Photinus pyralis, UniProt P08659); conditions: EDTA in lysis buffer, 30 min; FIG. 12
Chain of Firefly luciferase (P08659 whole entry): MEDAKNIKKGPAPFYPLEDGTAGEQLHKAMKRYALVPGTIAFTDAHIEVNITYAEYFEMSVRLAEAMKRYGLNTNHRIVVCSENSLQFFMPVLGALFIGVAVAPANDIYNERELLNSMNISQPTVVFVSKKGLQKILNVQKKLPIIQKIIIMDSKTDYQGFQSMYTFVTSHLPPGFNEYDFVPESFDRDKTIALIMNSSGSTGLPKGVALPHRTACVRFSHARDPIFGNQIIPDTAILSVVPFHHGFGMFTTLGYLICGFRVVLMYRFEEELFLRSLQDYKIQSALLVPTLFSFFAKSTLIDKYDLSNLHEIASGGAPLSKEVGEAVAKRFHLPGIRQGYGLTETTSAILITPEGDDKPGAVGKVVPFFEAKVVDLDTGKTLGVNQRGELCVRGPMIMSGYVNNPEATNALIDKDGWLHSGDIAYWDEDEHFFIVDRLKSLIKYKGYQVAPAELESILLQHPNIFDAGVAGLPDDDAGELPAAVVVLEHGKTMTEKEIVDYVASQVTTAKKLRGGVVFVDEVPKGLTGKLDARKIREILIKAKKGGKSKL
Description: (§1) HeLa cells expressing Firefly or Renilla luciferases were plated into 96-well plates and incubated overnight. Medium was removed and the cells lysed in 20 ul of lysis buffer containing 25 mM Tris pH 8.1; 0.1% NP40; 63.4 uM Na-Oxalate; 5% Glycerol, 150 mM NaCl plus the concentration of EDTA in FIG. 12. Replicate samples were assayed for luciferase activity at 30 min by injecting 30 ul of Firefly assay buffer II containing Firefly substrate followed by 30 ul of Promega's “Stop and Glo” buffer containing Renilla substrate. Results are expressed as a % of the light units obtained in the absence of EDTA (see FIG. 12).

[6] = target: Renilla luciferase (Renilla reniformis, UniProt P27652); conditions: EDTA in lysis buffer, 30 min; FIG. 12
Chain of Renilla luciferase (P27652 whole entry): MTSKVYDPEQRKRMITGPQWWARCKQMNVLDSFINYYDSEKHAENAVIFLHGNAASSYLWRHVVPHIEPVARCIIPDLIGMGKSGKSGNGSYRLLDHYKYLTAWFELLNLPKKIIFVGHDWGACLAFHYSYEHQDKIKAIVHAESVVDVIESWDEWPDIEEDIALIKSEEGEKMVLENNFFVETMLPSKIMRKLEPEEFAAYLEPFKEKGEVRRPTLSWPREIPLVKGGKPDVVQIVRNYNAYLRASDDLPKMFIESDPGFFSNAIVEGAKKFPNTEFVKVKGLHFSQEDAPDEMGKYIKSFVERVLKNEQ
Description: as §1

NC(N)=O [urea]
increase in signal between 15 and 60 min lysis [1]: increase was less pronounced

O=C(O)CN(CCOCCOCCN(CC(=O)O)CC(=O)O)CC(=O)O [EGTA]
signal intensity [2]: concentration-dependent beneficial effect on signal intensity | signal intensity [3]: concentration-dependent beneficial effect on signal intensity

Triton X100
light units (% of those obtained using 0.1% NP40) [2]: highest signal intensity | light units (% of those obtained using 0.1% NP40) [3]: highest signal intensity

C[C@H](CCC(=O)NCCC[N+](C)(C)CCCS(=O)(=O)[O-])[C@H]1CC[C@H]2[C@@H]3[C@H](O)C[C@@H]4C[C@H](O)CC[C@]4(C)[C@H]3C[C@H](O)[C@]12C [CHAPS]
light units (% of those obtained using 0.1% NP40) [2]: insufficient to lyse the cells; also recorded: highest activity for non-secreted Metridia luciferase | signal intensity with detergent in lysis buffer [3]: appeared not to lyse the cells at 0.1% | light units (% of those obtained using 0.1% NP40) [3]: insufficient to lyse the cells

NP40
light units (% of those obtained using 0.1% NP40) [2]: highest signal intensity | effect of % NP40 in lysis buffer on signal strength ([3]; FIGS. 16A, 16B): signal strength declined with increasing amounts of detergent | signal intensity with detergent in lysis buffer [3]: highest signal intensity | light units (% of those obtained using 0.1% NP40) [3]: highest signal intensity

C[C@H](CCC(=O)[O-])[C@H]1CC[C@H]2[C@@H]3CC[C@@H]4C[C@H](O)CC[C@]4(C)[C@H]3C[C@H](O)[C@]12C.[Na+] [DOC]
light units (% of those obtained using 0.1% NP40) [2]: concentration-dependent inhibition on signal intensity. This effect was most evident | signal intensity with detergent in lysis buffer [3]: do not perform well | light units (% of those obtained using 0.1% NP40) [3]: concentration-dependent inhibition on signal intensity. This effect was most evident

CCCCCCCCCCCCCCCC[N+](C)(C)C.[Br-] [CTAB]
effect of cationic detergent on signal intensity ([3]; data not shown, luciferase not specified, stated under Example 15): strong inhibitory effect on signal intensity

N[C@@H](CCC(=O)N[C@@H](CS)C(=O)NCC(=O)O)C(=O)O [reduced glutathione]
rate at which luciferase acquires maximum activity during cell lysis; signal ([3]; total glutathione and reduced:oxidized ratio varied, 20 or 60 min, FIG. 21): somewhat reduced signal was seen at 60 minutes

O=C(O)CN(CC(=O)O)C1CCCCC1N(CC(=O)O)CC(=O)O (stereo not drawn) [CDTA]
signal intensity [2]: concentration-dependent beneficial effect on signal intensity

[Br-].[Na+] [NaBr, sodium bromide]
light output (% of light units obtained in the absence of salt) [4]: higher than with either NaCl or no salt | increase in activity between 30 and 120 min lysis [2]: performed better than NaCl | light output (% of light units obtained in the absence of salt) ([2]; salt in lysis buffer, assayed 30 min after lysis buffer, FIG. 4): superior enhancement to NaCl | luciferase activity (RLU) ([3]; NaBr in lysis buffer or assay buffer, final 75 mM, FIG. 2): enhances activity of non-secreted Gaussia luciferase, especially when included in lysis buffer | stability of luciferase activity between 20 and 90 min after onset of cell lysis [3]: far more stable (and therefore more desirable) level of luciferase activity | light output (% of light units obtained in the absence of salt) [3]: superior enhancement to NaCl

[Cl-].[Na+] [NaCl]
increase in activity between 30 and 120 min lysis [2]: more than 1200% | light output (% of light units obtained in the absence of salt) [3]: increased light output compared to no salt

O=C(O)CN(CCN(CC(=O)O)CC(=O)O)CC(=O)O [EDTA]
signal intensity [2]: concentration-dependent beneficial effect on signal intensity | increase in activity between 30 and 120 min lysis [2]: performed considerably better | light units (% of those obtained in the absence of EDTA) [5]: clearly decreases the activity of Firefly luciferase | light units (% of those obtained in the absence of EDTA) [6]: does not provide the same beneficial effect on signal intensity | signal intensity [3]: concentration-dependent beneficial effect on signal intensity | signal intensity and stability of signal over time in lysis buffer ([3]; lysis buffer with 150 mM NaBr and varied EDTA, 30 or 120 min, FIGS. 8A, 8B): benefit of higher amounts of EDTA in terms of both signal intensity and the stability of the luciferase signal over time in lysis buffer | stability of luciferase activity between 20 and 90 min after onset of cell lysis [3]: far more stable (and therefore more desirable) level of luciferase activity

CCCCCCCCCCCCOS(=O)(=O)[O-].[Na+] [SDS]
light units (% of those obtained using 0.1% NP40) [2]: blocks enzymatic activity; also recorded: concentration-dependent inhibition on signal intensity. This effect was most evident | signal intensity with detergent in lysis buffer [3]: do not perform well | light units (% of those obtained using 0.1% NP40) [3]: blocks enzymatic activity; also recorded: concentration-dependent inhibition on signal intensity. This effect was most evident

Source: USRE47607E1, “Luciferase signal enhancing compositions” (GENE STREAM PTY LTD, priority 2006, dated 2019)
